# In US20220162257A1, “3ALPHA, 5BETA-NEUROACTIVE STEROIDS FOR THE TREATMENT OF EPILEPSY AND SEIZURE DISEASES” (USTAV ORGANICKE CHEMIE A BIOCHEMIE AV CR, V. V. I., priority 2019, published 2022):
# Structures can show the parent of a compound that is named as a salt.
# Assays:
# [1] = system: experimental seizures in animal models; settings: cited from earlier work; for effect in experimental seizures: seizures elicited by pentylenetetrazol, pilocarpine, NMDA and kainic acid
# adults and children = settings: clinical studies; cited from earlier work
# [2] = system: PTZ-induced seizures in zebrafish (Danio rerio); assay: pentetrazol (PTZ)-induced seizures in zebrafish larvae; assay type: in vivo; settings: 7 dpf larvae, PTZ 5 mmol/L; for epileptiform locomotor activity in the dark phase/light test, sedation: doses of 1, 3 and 5 mg/kg; for locomotor activity epileptiform induced by PTZ (spontaneous locomotor activity, maximum velocity, angle turns): doses of 1, 3 and 5 mg/kg (1, 3 and 5 μmol/L in the source)
# Experimental: Adults wild-type (strain AB) zebrafish (Danio rerio) were maintained at 28-29° C. on a light cycle of 14 h light:10h dark (lights on at 7 am; lights off at 9 pm) at ZeClinics animal facility (Barcelona). All procedures involving animals and their care were conducted accordingly to CEA-OH/9421/2 authorization from Government of Catalonia. Embryos obtained by pairwise mating were raised in E3 media at the controlled temperature of 28.5° C. until 7 days post-fertilization (dpf) when the experiments were performed.
# The anticonvulsant activity of the claimed compounds on the nervous system of zebrafish (Danio rerio). This test is the modern alternative to tests in adult animals as Danio rerio is very versatile organism that has a number of physiological similarities to mammals, including humans (Expert Opin. Drug Metab. Toxicol. 2009, 5, 393). Steroidal compounds were tested in three concentrations (1, 3 and 5 μmol.L^−1) on 7 days post-fertilization (dpf) wild-type larvae. As a negative control, sibling larvae were incubated with DMSO 1%, which allows us to detect behavioral alterations of PTZ treated larvae. Seizures were induced by treatment of pentetrazol (PTZ) at the dose 5 mmol.L^−1. Commercially available anti-convulsant drug Topiramate was used as comparator. Results were analyzed with GraphPad Prism software and statistical significance is assessed by the One-way ANOVA statistical analysis followed by Tukey's multiple comparisons test. The zebrafish larvae locomotion and response to visual stimuli are traced and analyzed by the EthoVision XT 12 software and the DanioVision device from Noldus Information Technologies, Wageningen, The Netherlands.
# This closed system consists of a camera placed above a chamber with circulating water and a temperature sensor that is set at 28° C. Individualized larvae in a 48-wells plate are placed in the chamber, which can provide different stimuli (light/dark environment, tapping, sound) controlled by the software. Prior to each experiment, larvae were left for 10 minutes in dark for acclimation, then predetermined series of alternating dark and light environment are presented to the larvae. The final experimental protocol is divided in three main part: first a 15 minutes step with light on, then a series of 5 short flashes of light to induce epileptic seizures and finally a 25 minutes dark/light alternating environments phase. Different sets of information can be extrapolated from the different phases: while the first step is useful to detect changes in the total larvae locomotion, the second part allows us to analyze the larval response to a seizure-inducing visual stimulus and measure the seizure characteristics: the maximum velocity and the number of angles turns (specific of seizure erratic movement). The final phase is useful to detect anomalies in larval movement and deviations from the stereotyped behavior (natural locomotor behavior of zebrafish is active in dark and immobile in light). The anticonvulsant effect of compounds was studied at doses of […] for the compound shown in Example 1, Example 2 and Example 3.
# [3] = system: PTZ-induced seizures in 12- and 25-day-old rats; assay: PTZ-induced generalized tonic-clonic seizures in immature rats; assay type: in vivo, rat
# Experimental: Anticonvulsant effect of compounds was evaluated in two models of epileptic seizures in immature rats (PTZ model and 6 Hz model). PTZ convulsions were tested in 12- and 25-day-old rats, 6 Hz-induced seizures in 15- and 25-day-old rats. Young adult rats (P60) were also used in either test. Day of birth was taken as P0. Experiments evaluating precognitive effect were performed in adult male rats of the Wistar and Long Evans strain (3 months old, b.w. 300-400 g). All animals were obtained from a breeding facility of Institute of Physiology CAS (certificate No. 1396/2014-MZE-17214) Animals were held in standard conditions (21±1° C., humidity 50-60%, light regime 12/12) with unrestricted access to food and water. All manipulations with animals were performed according to the https://nc3rs.org.uk/arrive-guidelines and to Czech Animal Protection Law 246/1992 Sb. And international directives (EU Directive 2010/63/EU for animals' experiments).
# Two age groups of immature male Wistar rats were used in either experiment. In PTZ model P12 corresponding by a maturation of the brain to early postnatal human babies, i.e. to the period where children epileptic encephalopathy mostly resistant to present pharmacotherapy start to appear. The other group—P25 animals corresponds with school-age children. Generalized tonic-clonic seizures were elicited by a subcutaneous injection of PTZ in a dose of 100 mg/kg. The 6 Hz model was tested in P15 (at this age eyes are open and it is not necessary to surgically distract lids). Biphasic pulses with […] were applied transcorneally for 3 s by a constant current stimulator of Ugo Basile company. PTZ induced generalized seizures represent a model of human generalized tonic-clonic seizures, seizures elicited by 6 Hz stimulation are generally taken as a model of temporal (psychomotor, complex partial) seizures. Differences in latencies and seizure severity were evaluated by ANOVA with a subsequent pairwise comparison by Holm-Sidak test. Incidence of seizures were evaluated by Fischer exact test. Critical p value was set at p=0.05.
# Anticonvulsant effect was studied in 12- and 25-day-old male Wistar rats. Steroid derivatives were administered at doses of 1, 5 and 10 mg/kg i.p. 20 min before the administration of PTZ (100 mg/kg s.c.).
# [4] = both age groups (P12, P25), 5 and 10 mg/kg i.p.
smiles,measurement,setting,value
C[C@@]12CCC[C@H]1[C@@H]1CC[C@@H]3C[C@H](OCCOC(=O)C4CCCC(=O)N4)CC[C@]3(C)[C@H]1CC2 (stereo partly shown),melting point,,117 to 119 °C
C[C@H]1CC[C@H]2[C@@H]3CC[C@@H]4C[C@H](OC(=O)C5CCC(=O)N5)CC[C@]4(C)[C@H]3CC[C@]12C (stereo partly shown),melting point,,157 to 158 °C
C[C@]12CC[C@@H](OC(=O)C3CCCC(=O)N3)C[C@H]1CC[C@@H]1[C@@H]2CC[C@]2(C)[C@@H](C#N)CC[C@@H]12 (stereo partly shown),melting point,,69 to 71 °C
CC(=O)[C@H]1CC[C@H]2[C@@H]3CC[C@H]4C[C@](C)(O)CC[C@]4(C)[C@H]3CC[C@]12C [Ganaxolone],generation of seizures,[1]; rodents,able to prevent generation of seizures in rodents
same,tolerability,adults and children,good tolerability in adults as well as children
"CC(=O)[C@H]1CC[C@H]2[C@@H]3CC[C@H]4C[C@H](O)CC[C@]4(C)[C@H]3CC[C@]12C [ALLO, 20-oxo-5α-pregnan-3α-ol]","frequency of seizures, mortality and cellular death",[1]; animal models of epilepsy,"deceases frequency of seizures, mortality and cellular death"
same,effect in experimental seizures,[1],significant effect
CC(=O)NCC(=O)O[C@@H]1CC[C@@]2(C)[C@H](CC[C@@H]3[C@@H]2CC[C@]2(C)[C@@H](C(C)=O)CC[C@@H]32)C1,melting point,,111 to 113 °C
CC(=O)[C@H]1CC[C@H]2[C@@H]3CC[C@@H]4C[C@H](OC(=O)C5CCC(=O)N5)CC[C@]4(C)[C@H]3[C@H](O)C[C@]12C (stereo partly shown),melting point,,183 to 185 °C
C[C@@]12CCC[C@H]1[C@@H]1CC[C@@H]3C[C@H](OC(=O)C4CCCC(=O)N4)CC[C@]3(C)[C@H]1CC2 (stereo partly shown),melting point,,109 to 111 °C
"C[C@]12CC[C@@H](OC(=O)C3CCC(=O)N3)C[C@H]1CC[C@@H]1[C@@H]2CC[C@]2(C)[C@@H](C#N)CC[C@@H]12 (stereo partly drawn) [Example 3, (3R,5R,8R,9S,10S,13S,14S,17S)-17-Cyano-10,13-dimethylhexadecahydro-1H-cyclopenta[a]phenanthren-3-yl 5-oxopyrrolidine-2-carboxylate]","epileptiform locomotor activity in the dark phase/light test, sedation",[2],decreased epileptiform locomotor activity in the dark phase/light test without causing sedation
same,"locomotor activity epileptiform induced by PTZ (spontaneous locomotor activity, maximum velocity, angle turns)",[2],significantly reduced the locomotor activity epileptiform induced by PTZ
same,incidence of GTCS,"[3]; P12 rats, 1, 5, 10 mg/kg i.p.",significantly affected only by the 5-mg/kg dose
same,incidence of GTCS,"[3]; P25 rats, 5 and 10 mg/kg i.p.",suppressed incidence of GTCS
"CC(=O)[C@H]1CC[C@H]2[C@@H]3CC[C@@H]4C[C@H](OC(=O)C5CCCC(=O)N5)CC[C@]4(C)[C@H]3CC[C@]12C (stereo partly drawn) [Example 2, (3R,5R,8R,9S,10S,13S,14S,17S)-17-Acetyl-10,13-dimethylhexadecahydro-1H-cyclopenta[a]phenantren-3-yl 6-oxopiperidine-2-carboxylate]","epileptiform locomotor activity in the dark phase/light test, sedation",[2],decreased epileptiform locomotor activity in the dark phase/light test without causing sedation
same,"locomotor activity epileptiform induced by PTZ (spontaneous locomotor activity, maximum velocity, angle turns)",[2],significantly reduced the locomotor activity epileptiform induced by PTZ
same,incidence of GTCS,[3]; [4],suppressed significantly
same,seizure severity,[3]; [4],suppressed significantly
"CC(=O)[C@H]1CC[C@H]2[C@@H]3CCC4=CC(=O)CC[C@]4(C)[C@H]3CC[C@]12C [PROG, pregn-4-en-3,20-dione]",effect in experimental seizures,[1],significant effect
C[C@@]12CCC[C@H]1[C@@H]1CC[C@@H]3C[C@H](OCCOC(=O)C4CCC(=O)N4)CC[C@]3(C)[C@H]1CC2 (stereo partly shown),melting point,,110 to 111 °C
C[C@@]12CCC[C@H]1[C@@H]1CC[C@@H]3C[C@H](OC(=O)C4CCC(=O)N4)CC[C@]3(C)[C@H]1CC2 (stereo partly shown),melting point,,136 to 137 °C
C[C@]12CC[C@@H](OC(=O)C3CCC(=O)N3)C[C@H]1CC[C@@H]1[C@@H]2CC[C@]2(C)C(=O)CC[C@@H]12 (stereo partly shown),melting point,,114 to 116 °C
"CC(=O)[C@H]1CC[C@H]2[C@@H]3CCC4=C[C@@H](OC(=O)[C@@H]5CCCN5)CC[C@]4(C)[C@H]3CC[C@]12C [PI-33, 3β-L-proline-progesterone-HCl, reference compound]",incidence of generalized tonic-clonic seizures,[3]; 1 and 10 mg/kg doses,did not change incidence of generalized tonic-clonic seizures
C/C=C1/CC[C@H]2[C@@H]3CC[C@@H]4C[C@H](OC(=O)C5CCC(=O)N5)CC[C@]4(C)[C@H]3CC[C@]12C (stereo partly shown),melting point,,155 to 157 °C
"CC(=O)[C@H]1CC[C@H]2[C@@H]3CC[C@H]4C[C@@H](OC(=O)[C@@H]5CCC(=O)N5)CC[C@]4(C)[C@H]3CC[C@]12C [Allopregnanolone (S)-5-oxopyrrolidin-2-carboxylate, reference compound]",action against generalized tonic-clonic seizures,"[3]; PTZ 100 mg/kg s.c., 12- and 25-day-old rats",only a moderate action
